Like-named read-outs stand apart in the source and are kept apart here.
What was measured:
[1] = Ocular tissue distribution of ketorolac after intracameral OMS302 during IOL replacement in dogs; assay type: in vivo, female beagles
Method: This example describes the results of an in vivo study in dogs to determine the concentrations of ketorolac in the retina and other ocular tissues following the intracameral administration of phenylephrine 1% and ketorolac 0.3% injection formulated as described in Table 1 (OMS302) during IOL replacement in dogs.
(§1) IOL replacement by phacoemulsification was performed on 20 female beagles. During the procedure, OMS302 was administered in BSS solution via irrigation and intracameral injection immediately post-procedure. The target dose level of ketorolac was 5.71 mg/eye, and the target dose volume of OMS302 diluted in BSS solution was […] per eye. Four animals per time point were sacrificed at 0, 2, 6, 8, and 10 hours post-procedure. Samples of blood and aqueous humor were collected. Enucleated eyes were frozen and dissected for collection of retina, retinal pigmented epithelium-choroid, cornea, iris-ciliary body, vitreous humor, sclera, and lens capsule. Tissue concentrations of ketorolac were quantitated using a liquid chromatography/mass spectrometry (LCMS) method. Using published IC50 values for cyclooxygenase (COX) inhibition by ketorolac (Waterbury, et. al., Curr Med Res Opin 22(6):1133-40 (2006)), estimates of percent inhibition were derived for each time point.

[2] = test system: COX-1; experiment: Estimated percent inhibition of COX-1 from tissue ketorolac concentrations in dogs; assay type: in vivo, female beagles; details: for estimated COX-1 inhibition: retina
Method: as §1

[3] = test system: COX-2; experiment: Estimated percent inhibition of COX-2 from tissue ketorolac concentrations in dogs; assay type: in vivo, female beagles; details: for estimated COX-2 inhibition: retina
Method: IOL replacement by phacoemulsification was performed on 20 female beagles. During the procedure, OMS302 was administered in BSS solution via irrigation and intracameral injection immediately post-procedure. […] Four animals per time point were sacrificed at 0, 2, 6, 8, and 10 hours post-procedure. Samples of blood and aqueous humor were collected. Enucleated eyes were frozen and dissected for collection of retina, retinal pigmented epithelium-choroid, cornea, iris-ciliary body, vitreous humor, sclera, and lens capsule. Tissue concentrations of ketorolac were quantitated using a liquid chromatography/mass spectrometry (LCMS) method.

[4] = human, in vivo
Excerpt: Patients undergoing cataract extraction and lens replacement (CELR) were eligible. Written informed consent was obtained from 14 subjects, each of whom received topical ophthalmic ketorolac according to the surgeon's usual practice, beginning one day preoperatively. Immediately prior to the initial surgical incision, the surgeon withdrew a 100-μL sample of aqueous humor from the operative eye with a 30-gauge tuberculin syringe. At the conclusion of CELR prior to final re-inflation of the anterior chamber and wound closure, the surgeon withdrew another 100-μL sample from the anterior chamber. The ketorolac concentrations of the intracameral fluid samples were analyzed by an analytical laboratory.

[5] = molecular target: COX-1 (Homo sapiens, UniProt P23219); details: cited from earlier work
[6] = molecular target: T1, COX-2 (Homo sapiens, UniProt P35354); details: cited from earlier work
T1 sequence (P35354 18-604): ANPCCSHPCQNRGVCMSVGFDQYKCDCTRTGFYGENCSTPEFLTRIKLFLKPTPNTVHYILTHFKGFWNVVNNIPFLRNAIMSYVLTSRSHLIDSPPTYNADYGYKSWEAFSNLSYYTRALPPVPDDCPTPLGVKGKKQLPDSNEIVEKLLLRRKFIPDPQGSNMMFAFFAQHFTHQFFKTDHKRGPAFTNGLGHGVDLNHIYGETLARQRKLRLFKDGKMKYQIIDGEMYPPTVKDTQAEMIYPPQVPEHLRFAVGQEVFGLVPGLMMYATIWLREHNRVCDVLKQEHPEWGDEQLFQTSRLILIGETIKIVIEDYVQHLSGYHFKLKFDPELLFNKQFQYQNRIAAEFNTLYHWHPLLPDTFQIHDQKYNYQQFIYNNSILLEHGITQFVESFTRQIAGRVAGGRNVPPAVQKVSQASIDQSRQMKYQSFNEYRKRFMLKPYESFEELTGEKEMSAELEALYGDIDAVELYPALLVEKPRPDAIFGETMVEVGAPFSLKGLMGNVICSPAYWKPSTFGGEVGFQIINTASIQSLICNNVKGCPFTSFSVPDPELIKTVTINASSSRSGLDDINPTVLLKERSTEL

[7] = test system: PGE2 production; details: ketorolac 0.45% compared to nepafenac 0.1% and bromfenac 0.09; cited from earlier work
[8] = aqueous humor, vitreous humor and RPE-choroid, t=8 hours
[9] = for at least 8 hours following drug administration
[10] = for at least 10 hours following drug administration
[11] = used for the estimate of percent inhibition

COX-1 (Homo sapiens, UniProt P23219), sequence (P23219 24-599): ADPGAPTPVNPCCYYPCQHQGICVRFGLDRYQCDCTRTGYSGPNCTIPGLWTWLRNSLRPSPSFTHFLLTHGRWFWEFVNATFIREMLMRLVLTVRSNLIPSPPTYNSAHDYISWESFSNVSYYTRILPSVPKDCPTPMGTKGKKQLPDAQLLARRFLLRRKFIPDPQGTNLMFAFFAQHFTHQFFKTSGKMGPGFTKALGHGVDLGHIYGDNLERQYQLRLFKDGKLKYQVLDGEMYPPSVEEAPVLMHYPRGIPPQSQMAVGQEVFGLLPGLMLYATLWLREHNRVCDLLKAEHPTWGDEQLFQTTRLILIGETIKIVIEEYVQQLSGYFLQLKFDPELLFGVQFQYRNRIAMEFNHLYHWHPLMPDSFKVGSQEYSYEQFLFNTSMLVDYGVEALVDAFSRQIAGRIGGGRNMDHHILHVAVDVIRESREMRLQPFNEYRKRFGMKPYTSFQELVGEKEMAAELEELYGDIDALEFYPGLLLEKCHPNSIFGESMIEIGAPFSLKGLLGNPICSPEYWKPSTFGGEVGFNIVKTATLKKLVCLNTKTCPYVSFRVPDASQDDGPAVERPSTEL

## O=C(c1ccccc1)c1ccc2n1CCC2C(=O)O (racemic) [ketorolac, (+/−)-5-Benzoyl-2,3-dihydro-1H-pyrrolizine-1-carboxylic acid: 2-amino-2(hydroxymethyl)-1,3-propanediol (1:1)]
[1]; female, beagle, dog, plasma, 5.71 mg/eye, t=0, read-out: mean plasma level of ketorolac
  concentration at 0 h: 4.73 ± 1.46 ng/mL
[1]; female, beagle, dog, retina, 5.71 mg/eye, eight hours post-procedure, intracameral OMS302 in BSS
  concentration at 8 h: 164 ± 39 ng/g
[1]; female, beagle, dog, retina, 5.71 mg/eye, immediately following the end of IOL replacement (t=0), intracameral OMS302 in BSS, read-out: Ketorolac concentration in the retina
  concentration at 0 h: 1400 ± 1000 ng/g
[1]; female, beagle, dog, retina, 5.71 mg/eye, ketorolac after intracameral OMS302, read-out: retinal half-life (converted)
  half-life: ~3.8 h
[1]; t≥2 hours
  mean plasma level of ketorolac: undetectable
[2]; [8]
  inhibition of COX-1: > 90%
[2]; [9]
  inhibition of COX-1 in ocular tissues: at least 90%
[2]; [10]
  inhibition of COX-1 in ocular tissues: at least 85%
[2]; t=0
  estimated COX-1 inhibition: 99.3%
[2]; t=8 hours
  estimated COX-1 inhibition: 98.4%
[2]; retinal tissue, t=10 hours, standard deviation 0.36%
  mean percent inhibition of COX-1: 97.74%
[3]; [8]
  inhibition of COX-2: > 90%
[3]; [9]
  inhibition of COX-2 in ocular tissues: at least 90%
[3]; [10]
  inhibition of COX-2 in ocular tissues: at least 85%
[3]; t=0
  estimated COX-2 inhibition: 96.0%
[3]; t=8 hours
  estimated COX-2 inhibition: 91.1%
[4]
  subjects with an undetectable concentration of ketorolac in the aqueous humor at the end of the surgical procedure: 66.7%
[5]; published value
  IC50: 20 nM
[5]; [11]
  Ki: 10 nM
[6]; published value
  IC50: 120 nM
[6]; [11]
  Ki: 60 nM
[7]
  inhibition of PGE2: greatest inhibition
